# Tested on: HCV genotype 1b HCV replicon harbored in Huh7 cells
# Test: Combination testing with compound A10 in HCV replicon (CalcuSyn CI and MacSynergy II synergy volume)
# Assay type: cell-based
# Conditions: combination of compound A10 with the listed compound; MacSynergy II, Bliss independence; 25-100 synergistic, >100 strongly synergistic
# Method: Two or more test compounds were tested in combination with each other using an HCV genotype 1b HCV replicon harbored in Huh7 cells with a stable luciferase (LUC) reporter. Cells were cultured under standard conditions in Dulbecco's modified Eagle's medium (DMEM; Mediatech Inc, Herndon, Va.) containing 10% heat-inactivated fetal bovine serum (FBS; Mediatech Inc, Herndon, Va.) 2 mM L-glutamine, and nonessential amino acids (JRH Biosciences). HCV replicon cells were plated in a 96-well plate at a density of 10^4 cells per well in DMEM with 10% FBS. […] The cells were incubated with no compound as a control, with the test compounds, or the combination of compounds for 72 h. The direct effects of the combination of the test compounds were examined using a luciferase (LUC) based reporter as determined by the Bright-Glo Luciferase Assay (Promega, Madison, Wis.). Dose-response curves were determined for individual compounds and fixed ratio combinations of two or more test compounds.
# The effects of test compound combinations were evaluated by two separate methods. In the Loewe additivity model, the experimental replicon data was analyzed by using CalcuSyn (Biosoft, Ferguson, Mo.), a computer program based on the method of Chou and Talalay. The program uses the experimental data to calculate a combination index (CI) value for each experimental combination tested. A CI value of <1 indicates a synergistic effect, a CI value of 1 indicates an additive effect, and a CI value of >1 indicates an antagonistic effect.
# The second method utilized for evaluating combination effects used a program called MacSynergy II. MacSynergy II software was kindly provided by Dr. M. Prichard (University of Michigan). The Prichard Model allows for a three-dimensional examination of drug interactions and a calculation of the synergy volume (units: μM^2%) generated from running the replicon assay using a checkerboard combination of two or more inhibitors. The volumes of synergy (positive volumes) or antagonism (negative volumes) represent the relative quantity of synergism or antagonism per change in the concentrations of the two drugs. Synergy and antagonism volumes are defined based on the Bliss independence model. In this model, synergy volumes of less than −25 indicate antagonistic interactions, volumes in the −25-25 range indicate additive behavior, volumes in the 25-100 range indicate synergistic behavior and volumes>100 indicate strong synergistic behavior.
molecule,measurement,value
COc1ccc2c(O[C@@H]3C[C@H]4C(=O)N[C@]5(C(=O)O)C[C@H]5/C=C\CCCCC[C@H](NC(=O)OC5CCCC5)C(=O)N4C3)cc(-c3csc(NC(C)C)n3)nc2c1 [BILN-2061],Synergy Volume,12 μM^2%
COC(=O)N[C@H](C(=O)N1CCC[C@H]1c1nc(-c2ccc(-c3ccc(-c4c[nH]c([C@@H]5CCCN5C(=O)[C@@H](NC(=O)OC)C(C)C)n4)cc3)cc2)c[nH]1)C(C)C [BMS-790052],Synergy Volume,25 μM^2%
"CCc1cc(CC[C@]2(C3CCCC3)CC(O)=C(Cc3nc4nc(C)cc(C)n4n3)C(=O)O2)cc(CC)n1 [Filibuvir, FILIBUVIR]",Synergy Volume,38 μM^2%
Fc1ccccc1-c1nc2ccn(Cc3ccc(-c4ccc(C(F)(F)F)cc4C(F)(F)F)nn3)cc-2n1 [GS-9190],Synergy Volume,112 μM^2%
CNC(=O)c1c(-c2ccc(F)cc2)oc2cc(N(CCO)S(C)(=O)=O)c(C3CC3)cc12 [HCV-796],Synergy Volume,35 μM^2%
COc1nc(N)nc2c1ncn2[C@@H]1O[C@H](COP(=O)(N[C@@H](C)C(=O)OCC(C)(C)C)Oc2cccc3ccccc23)[C@@H](O)[C@@]1(C)O (some centres unmarked) [INX-189],Synergy Volume,31 μM^2%
"CC(C)(C)OC(=O)N[C@H]1CCCCC/C=C\[C@@H]2C[C@@]2(C(=O)NS(=O)(=O)C2CC2)NC(=O)[C@@H]2C[C@@H](OC(=O)N3Cc4cccc(F)c4C3)CN2C1=O [ITMN-191, DANOPREVIR]",Synergy Volume,39 μM^2%
CCOc1nc(N)nc2c1ncn2[C@@H]1O[C@@H]2COP(=O)(OC(C)C)O[C@H]2[C@@]1(C)F (some centres unmarked) [PSI-938],Synergy Volume,36 μM^2%
C[C@@]1(F)[C@H](O)[C@@H](CO)O[C@H]1n1ccc(N)nc1=O [PSI-6130],Synergy Volume,21 μM^2%
CC(C)OC(=O)[C@H](C)NP(=O)(OC[C@H]1O[C@@H](n2ccc(=O)[nH]c2=O)[C@](C)(F)[C@@H]1O)Oc1ccccc1 (some centres unmarked) [PSI-7851],Synergy Volume,14 μM^2%
"NC(=O)c1ncn([C@@H]2O[C@H](CO)[C@@H](O)[C@H]2O)n1 [Ribavirin, ribavirin]",Synergy Volume,0 μM^2%
COc1ccc2c(O[C@@H]3C[C@H]4C(=O)N[C@]5(C(=O)NS(=O)(=O)C6CC6)C[C@H]5/C=C\CCCCN(C)C(=O)[C@@H]4C3)cc(-c3nc(C(C)C)cs3)nc2c1C [TMC-435],Synergy Volume,104 μM^2%
CC(C)(C)C#Cc1cc(N(C(=O)[C@H]2CC[C@H](C)CC2)[C@H]2CC[C@H](O)CC2)c(C(=O)O)s1 [VX-222],Synergy Volume,52 μM^2%
"CCC[C@H](NC(=O)[C@@H]1[C@H]2CCC[C@H]2CN1C(=O)[C@@H](NC(=O)[C@@H](NC(=O)c1cnccn1)C1CCCCC1)C(C)(C)C)C(=O)C(=O)NC1CC1 [VX-950, Telaprevir]",Synergy Volume,34 μM^2%
"IFN-Lambda 2 (protein, UniProt Q8IZJ0 26-200, looked up) Interferon lambda-2: VPVARLHGALPDARGCHIAQFKSLSPQELQAFKRAKDALEESLLLKDCRCHSRLFPRTWDLRQLQVRERPMALEAELALTLKVLEATADTDPALVDVLDQPLHTLHHILSQFRACIQPQPTAGPRTRGRLHHWLYRLQEAPKKESPGCLEASVTFNLFRLLTRDLNCVASGDLCV",Synergy Volume,31 μM^2%
"IFN-Lambda 3 (protein, UniProt Q8IZI9 22-196, looked up) Interferon lambda-3: VPVARLRGALPDARGCHIAQFKSLSPQELQAFKRAKDALEESLLLKDCKCRSRLFPRTWDLRQLQVRERPVALEAELALTLKVLEATADTDPALGDVLDQPLHTLHHILSQLRACIQPQPTAGPRTRGRLHHWLHRLQEAPKKESPGCLEASVTFNLFRLLTRDLNCVASGDLCV",Synergy Volume,33 μM^2%
"IFN-Lambda 1 (protein, UniProt Q8IU54 20-200, looked up) Interferon lambda-1: GPVPTSKPTTTGKGCHIGRFKSLSPQELASFKKARDALEESLKLKNWSCSSPVFPGNWDLRLLQVRERPVALEAELALTLKVLEAAAGPALEDVLDQPLHTLHHILSQLQACIQPQPTAGPRPRGRLHHWLHRLQEAPKKESAGCLEASVTFNLFRLLTRDLKYVADGNLCLRTSTHPEST",Synergy Volume,43 μM^2%

# — patent US20120070411A1, “SUBSTITUTED NUCLEOTIDE ANALOGS” (Alios BioPharma, Inc., priority 2010, published 2012)
